Test results: PubChem BioAssay (NCI)
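Abbreviation: GI50, concentration required for 50% inhibition of growth. At the TGI there is no net growth.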

Tests used:
Experiment in all cases: NCI anticancer screen, dose series, 384-well format
NCI-H226 lung = system: NCI-H226 lung
NCI-H23 lung = system: NCI-H23 lung
NCI-H322M lung = system: NCI-H322M lung
NCI-H460 NSCLC = system: NCI-H460 NSCLC
NCI-H522 lung = system: NCI-H522 lung
NCI/ADR-RES ovarian = system: NCI/ADR-RES ovarian
OVCAR-3 ovarian = system: OVCAR-3 ovarian
OVCAR-4 ovarian = system: OVCAR-4 ovarian
OVCAR-5 ovarian = system: OVCAR-5 ovarian
OVCAR-8 ovarian = system: OVCAR-8 ovarian
PC-3 prostate = system: PC-3 prostate
RPMI-8226 leukemia = system: RPMI-8226 leukemia
RXF 393 renal = system: RXF 393 renal
SF-268 CNS = system: SF-268 CNS
SF-295 CNS = system: SF-295 CNS
SF-539 CNS = system: SF-539 CNS
SK-MEL-2 melanoma = system: SK-MEL-2 melanoma
SK-MEL-28 melanoma = system: SK-MEL-28 melanoma
SK-MEL-5 melanoma = system: SK-MEL-5 melanoma
SK-OV-3 ovarian = system: SK-OV-3 ovarian
SN12C renal = system: SN12C renal
SNB-19 CNS = system: SNB-19 CNS
SNB-75 CNS = system: SNB-75 CNS
SW-620 colon = system: SW-620 colon
T-47D breast = system: T-47D breast
TK-10 renal = system: TK-10 renal
U251 glioblastoma = system: U251 glioblastoma
UACC-257 melanoma = system: UACC-257 melanoma
UACC-62 melanoma = system: UACC-62 melanoma
UO-31 renal = system: UO-31 renal

Cc1cc(C(=O)Nc2nc3cccc(Cl)c3n2[C@@H]2CCCCN(C(=O)/C=C/CN(C)C)C2)ccn1
TGI (NCI-H226 lung): 15.9 µM
GI50 (NCI-H23 lung): 2.83 µM
TGI (NCI-H23 lung): 10.5 µM
GI50 (NCI-H322M lung): 0.367 µM
TGI (NCI-H322M lung): 10.1 µM
GI50 (NCI-H460 NSCLC): 2.99 µM
TGI (NCI-H460 NSCLC): 10.6 µM
GI50 (NCI-H522 lung): 0.12 µM
TGI (NCI-H522 lung): 2.07 µM
GI50 (NCI/ADR-RES ovarian): 2.3 µM
TGI (NCI/ADR-RES ovarian): 9.63 µM
GI50 (OVCAR-3 ovarian): 1.46 µM
TGI (OVCAR-3 ovarian): 4.15 µM
GI50 (OVCAR-4 ovarian): 3.56 µM
TGI (OVCAR-4 ovarian): 14.7 µM
GI50 (OVCAR-5 ovarian): 3.08 µM
TGI (OVCAR-5 ovarian): 14.2 µM
GI50 (OVCAR-8 ovarian): 3.15 µM
TGI (OVCAR-8 ovarian): 13.7 µM
GI50 (PC-3 prostate): 3.45 µM
TGI (PC-3 prostate): 14.3 µM
GI50 (RPMI-8226 leukemia): 1.4 µM
TGI (RPMI-8226 leukemia): 3.77 µM
GI50 (RXF 393 renal): 4.04 µM
TGI (RXF 393 renal): 15.3 µM
GI50 (SF-268 CNS): 3.02 µM
TGI (SF-268 CNS): 14 µM
GI50 (SF-295 CNS): 4.09 µM
TGI (SF-295 CNS): 14.5 µM
GI50 (SF-539 CNS): 3.23 µM
TGI (SF-539 CNS): 11 µM
GI50 (SK-MEL-2 melanoma): 2.43 µM
TGI (SK-MEL-2 melanoma): 7.52 µM
GI50 (SK-MEL-28 melanoma): 7.02 µM
TGI (SK-MEL-28 melanoma): 20.1 µM
GI50 (SK-MEL-5 melanoma): 1.71 µM
TGI (SK-MEL-5 melanoma): 4.83 µM
GI50 (SK-OV-3 ovarian): 0.928 µM
TGI (SK-OV-3 ovarian): 10.2 µM
GI50 (SN12C renal): 1.79 µM
TGI (SN12C renal): 13.9 µM
GI50 (SNB-19 CNS): 3.49 µM
TGI (SNB-19 CNS): 14.9 µM
GI50 (SNB-75 CNS): 5.5 µM
TGI (SNB-75 CNS): 17.9 µM
GI50 (SW-620 colon): 2.93 µM
TGI (SW-620 colon): 8.65 µM
GI50 (T-47D breast): 2.65 µM
TGI (T-47D breast): 17.3 µM
GI50 (TK-10 renal): 0.494 µM
TGI (TK-10 renal): 7.41 µM
GI50 (U251 glioblastoma): 2.61 µM
TGI (U251 glioblastoma): 8.17 µM
GI50 (UACC-257 melanoma): 2.56 µM
TGI (UACC-257 melanoma): 8.75 µM
GI50 (UACC-62 melanoma): 3.62 µM
TGI (UACC-62 melanoma): 14.1 µM
GI50 (UO-31 renal): 2.05 µM
TGI (UO-31 renal): 12.9 µM
